The source of these data is patent US20260265227A1, “AMIDE PRODRUGS AND USES THEREOF” (Autobahn Therapeutics, Inc., priority 2022, published 2026).

The experiment addresses T1, recombinant human FAAH (rhFAAH) (Homo sapiens, UniProt O00519).
T1 construct: purchased Cayman Chemical (Ann Arbor, MI, USA)
T1 sequence (O00519 1-579): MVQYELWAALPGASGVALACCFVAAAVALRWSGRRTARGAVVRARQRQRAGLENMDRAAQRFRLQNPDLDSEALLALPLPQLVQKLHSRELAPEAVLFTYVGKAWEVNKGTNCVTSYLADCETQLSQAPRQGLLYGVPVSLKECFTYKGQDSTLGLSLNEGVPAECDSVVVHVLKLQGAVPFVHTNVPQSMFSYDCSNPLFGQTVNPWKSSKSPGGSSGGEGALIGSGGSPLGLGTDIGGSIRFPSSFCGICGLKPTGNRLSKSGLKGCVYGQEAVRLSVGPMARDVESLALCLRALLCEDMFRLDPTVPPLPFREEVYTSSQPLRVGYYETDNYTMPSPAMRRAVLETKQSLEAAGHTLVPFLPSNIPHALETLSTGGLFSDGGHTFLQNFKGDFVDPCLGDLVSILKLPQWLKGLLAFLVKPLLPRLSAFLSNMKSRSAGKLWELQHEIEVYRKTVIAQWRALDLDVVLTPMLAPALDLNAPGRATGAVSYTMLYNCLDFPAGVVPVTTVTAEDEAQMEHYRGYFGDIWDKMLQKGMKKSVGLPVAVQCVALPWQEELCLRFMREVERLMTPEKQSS
Kind of experiment: FAAH Substrate Evaluation (formation of acid metabolite from amide prodrug). The class given is biochemical. As to conditions: 0.5 ng/μL rhFAAH, 1 μM test compound, Tris-EDTA buffer pH 8.0, 0.1% BSA, room temperature, 0-60 minutes, LC-MS/MS. As for the experimental part: Purified recombinant human FAAH (rhFAAH) was purchased from Cayman Chemical (Ann Arbor, MI, USA). The total volume for each incubation was 400 μL containing a final 0.5 ng/μL rhFAAH, 1 μM test compound, 1.25% ethanol or 1 μM PF-3845 (FAAH inhibitor), and 0.1% bovine serum albumin in Tris-EDTA buffer at pH 8.0). The positive control was LL-341001. The incubation was conducted at the room temperature. At 0, 5, 15, 30 and 60 minutes, an aliquot of 30 μL reaction mixtures was removed and mixed with 300 μL acetonitrile containing 5 ng/mL terfenadine and 10 ng/ml tolbutamide as internal standards to quench the reaction. The resulting mixture was centrifuged at 4000 rpm, 4° C. for 15 minutes, and 100 μL supernatant was ready for LC-MS/MS analysis to measure the formation of acid metabolite.
Acquity Ultra Performance LC system from Waters was used for sample analysis. The chromatography was performed on a reverse phase Kinetex 2.6 μm C18 column, 2.1×30 mm, 100 Å. The mobile phase A comprised of 0.1% formic acid in water and mobile phase B comprised of 0.1% formic acid in acetonitrile with a 2-min run time at the flow rate of 0.8 mL/min for the acid metabolite from positive control or a 1.5 min run time at the flow rate of 0.9 mL/min for the acid metabolite of test compounds. The mass spectrometer (API-5500 and API Q Trap 4000 Applied Biosystems/MDS SCIEX Instruments, Framingham, MA, USA) was operated under ESI positive or negative ion MRM mode.
The formation of acid metabolite was monitored and quantified using one calibration point of 1 μM. The observed rate constant (ke) for the acid metabolite formation was calculated by plotting the metabolite concentration versus time of incubation with the slope being ke and is shown in Table 1.

Consider `C[C@H]1Cc2cc(OCCCC(F)(F)F)ccc2C=C1CN1CC(C(=O)Nc2ccncc2)C1` [Compound 24, (S)-1-((3-methyl-6-(4,4,4-trifluorobutoxy)-3,4-dihydronaphthalen-2-yl)methyl)-N-(pyridin-4-yl) azetidine-3-carboxamide], for which the “ke (observed rate constant for the acid metabolite formation)” value was “A (ke is more than or equal to 1.0)”. The value for `C[C@H]1Cc2cc(OCCCC(F)(F)F)ccc2C=C1CN1CC(C(=O)NCCC(F)(F)F)C1` [Compound 25, (S)-1-((3-methyl-6-(4,4,4-trifluorobutoxy)-3,4-dihydronaphthalen-2-yl)methyl)-N-(3,3,3-trifluoropropyl) azetidine-3-carboxamide] was “A (ke is more than or equal to 1.0)”.
